Results on 5 molecules are retold here after patent US20260265305A1, “POLYPEPTIDE DERIVATIVE FOR ORAL DELIVERY” (Hangzhou Sciwind Biosciences Co., Ltd., priority 2023, published 2026).

pEC50: −log10 of the molar value. Numbered stars: 1 amine (or outer) side, 2 acyl side, 3 side chain; on linkers, the order of the positions; unused ones are H or OH. Peptide text beside a SMILES is read from it. * marks the point of attachment. C22 diacid = O=C(O)CCCCCCCCCCCCCCCCCCCCC(=O)*; C18 diacid = O=C(O)CCCCCCCCCCCCCCCCC(=O)*; C16 diacid = O=C(O)CCCCCCCCCCCCCCC(=O)*; γGlu = O=C(O)[C@H](CCC(=O)[*:2])N[*:1]; AEEA = NCCOCCOCC(=O)O

Series [1] deals with T1, calcitonin receptor (hCTR) (Homo sapiens, UniProt P30988).
T1 construct: host or cells: CHO-K1/CALCR/Ga15 cells, further stably transfected with a CRE-luciferase plasmid
T1 sequence (P30988 25-474): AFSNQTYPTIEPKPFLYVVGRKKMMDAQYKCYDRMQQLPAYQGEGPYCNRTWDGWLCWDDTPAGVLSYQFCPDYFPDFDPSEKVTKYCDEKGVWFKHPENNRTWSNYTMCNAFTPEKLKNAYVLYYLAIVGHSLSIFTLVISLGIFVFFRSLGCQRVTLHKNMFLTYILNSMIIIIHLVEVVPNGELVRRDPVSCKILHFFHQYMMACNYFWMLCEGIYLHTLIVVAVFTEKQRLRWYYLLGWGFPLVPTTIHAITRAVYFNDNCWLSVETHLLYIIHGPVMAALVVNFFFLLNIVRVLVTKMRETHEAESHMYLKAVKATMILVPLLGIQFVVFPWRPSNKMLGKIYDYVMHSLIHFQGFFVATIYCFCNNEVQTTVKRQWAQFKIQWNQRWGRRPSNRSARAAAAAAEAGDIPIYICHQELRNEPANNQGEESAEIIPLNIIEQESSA
Nature of the series: Calcitonin receptor agonism, CRE-luciferase assay in stably transfected CHO-K1/CALCR/Ga15 cells. The note with it: incubation of 24 hours; Table 4; read-out: EC50, activity against the calcitonin receptor in cells. In kind it is cell-based.

Series [2] can be described thus: Heat accelerated stability assay of polypeptide solutions (40° C., pH about 7.4), reversed phase chromatography. In kind it is physicochemical. To be noted: 40° C.; for Concentration change on 7 d / Concentration change on 26 d: pH about 7.4, 1 mg/mL; for Concentration change on 7 d / Purity change on 7 d: Day 7; for Concentration change on 26 d / Purity change on 26 d: Day 26; for Purity change on 7 d / Purity change on 26 d: reversed phase chromatography 214 nm; for Purity change on 7 d: purity on 7 d − purity on 0 d; for Purity change on 26 d: purity on 26 d − purity on 0 d. As for the experimental part:
A stability test chamber (BINDER GmbH), a 0.01 mg-readability balance (METTLER TOLEDO), a pH meter (METTLER TOLEDO), a biosafety cabinet (ESCO), T2G-II small-sized motor-driven capping machine (Changsha zhongya pharmaceutical equipment co. LTD), a high-speed refrigerated centrifuge (Eppendorf), a sterilizer cabinet (Shinva Medical), Agilent 1260 high-performance liquid chromatographer, and Sepax Bio-C18 4.6*250 mm 3 μm 200 Å reversed phase column were used.
Reagents and consumables included: ultrapure water (18.2 MΩ, self-made), acetonitrile (HPLC grade), trifluoroacetic acid (HPLC grade), sodium dihydrogen phosphate (pharmaceutical grade, Hunan Jiudian Hongyang Pharmaceutical Co., Ltd), hydrochloric acid (pharmaceutical grade, Hunan Er-Kang Pharmaceutical Co., Ltd), sodium hydroxide (Analytical Reagent grade, Hushi®, Sinopharm Chemical Reagent Co., Ltd), vials, rubber stoppers, disposable syringes, and sterile filters.
The lyophilized powder (1 mg/mL) of the polypeptide derivative prepared in accordance with the method of Example 1 was mixed with sodium dihydrogen phosphate (1.42 mg/mL) and dissolved in ultrapure water in the indicated mass-volume ratios. After adjusting pH to about 7.4 with hydrochloric acid/sodium hydroxide, the solution was filtered into a sterilized vial in a clean bench using a 0.22 μm sterile filter. The vial was then capped and placed into the stability test chamber at 40° C. Detections were made on Days 7 (7d) and 26 (26d), and during the assay, changes in the characteristics and properties of the polypeptide were observed and recorded. The sample was then centrifuged for 3 min at 10,000 rpm at 4° C., and the supernatant was transferred to a liquid phase sample vial for detecting the concentration and purity of the polypeptides using liquid phase chromatography described as below, wherein the concentration of the polypeptide=peak area/injection volume/extinction coefficient/60×flow rate, and the purity of the polypeptide=target peak area/total peak area×100%.
Conditions of the reversed phase chromatography Flow rate: 1.0 ml/min; Autosampler temperature: 15° C.; Column temperature: 25° C.; Detection wavelengths: 280 nm and 214 nm; Mobile phase A: 100% H2O+0.05% TFA; Mobile phase B: 100% ACN; and Gradient of elution listed in Table 6: […]

Series [3] has as its target T2, amylin receptor (hAMY3R) (Homo sapiens, UniProt O60896+P30988).
T2 construct: host or cells: CHO-K1/Ga15/AMY3 cells, further stably transfected with a CRE-luciferase plasmid
T2 sequence (P30988 25-474): T1 sequence (P30988 25-474)
T2 sequence (O60896 24-148): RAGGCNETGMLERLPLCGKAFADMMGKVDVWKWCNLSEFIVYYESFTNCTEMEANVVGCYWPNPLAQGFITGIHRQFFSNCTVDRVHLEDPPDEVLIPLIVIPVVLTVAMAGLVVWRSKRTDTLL
Nature of the series: Amylin receptor agonism testing, CRE-luciferase assay in stably transfected CHO-K1/Ga15/AMY3 cells. It counts as cell-based. To be noted: incubation of 24 hours; Table 3; read-out: EC50, activity against the amylin receptor in cells.
Source text: The objective of this assay is to test the potency of the polypeptide derivatives in the present application on amylin and calcitonin receptors in vitro using a luciferase assay.
Using the standard protocol for construction of an amylin receptor/CRE-luc cell line, CHO-K1/Ga15/AMY3 cells (purchased from GenScript, with the calcitonin receptor and the receptor activity modifying peptide (RAMP) constructed already) were transfected with a plasmid containing a luciferase expression cassette driven by multiple copies of cAMP response elements (CREs). The cells were cultured in an F12 medium containing 200 ug/mL Zeocin, 2 ug/mL puromycin, 100 ug/mL hygromycin, and 400 ug/mL G418 to afford a stably transfected amylin receptor/CRE-luc cell line.
To each well of a white 96-well plate was added 50 μL of the tested sample solution at a respective concentration.
The stably transfected amylin receptor/CRE-luc CHO cells were resuspended in the growth medium at a certain density, and 50 μL of the cell suspension was added at a density of about 20,000 cells per well to the white 96-well plate containing the tested sample solution. After incubation of 24 hours at 37° C. and 5% CO2, 100 μL of a Luciferase substrate was added to each well, incubated for 3 minutes, and finally was tested for luminescence on SpectraMax L (Molecular Devices) with the software SoftMax Pro 7.0.3 GxP. A standard curve was plotted using the fluorescent intensities for calculation of EC50.

As a reminder, the pEC50 is the EC50 on a negative log10 scale, so that one unit is a factor of ten. In the case of `CC(C)C[C@H](NC(=O)[C@H](CCCNC(=N)N)NC(=O)CNC(=O)[C@H](CC(C)C)NC(=O)[C@@H](NC(=O)[C@H](C)NC(=O)[C@@H](NC(=O)[C@H](CO)NC(=O)[C@H](CC(C)C)NC(=O)[C@H](CCC(N)=O)NC(=O)[C@H](CO)NC(=O)[C@H](C)NC(=O)CC[C@H](NC(=O)CCCCCCCCCCCCCCCCCCCCC(=O)O)C(=O)O)[C@@H](C)O)C(C)C)C(=O)N[C@@H](CO)C(=O)N[C@@H](CC(=O)O)C(=O)N[C@@H](CCC(=O)O)C(=O)N[C@@H](CC(C)C)C(=O)N[C@@H](Cc1c[nH]cn1)C(=O)N[C@@H](CCCNC(=N)N)C(=O)N[C@@H](CC(C)C)C(=O)N[C@@H](CCC(N)=O)C(=O)N[C@@H](CC(=O)O)C(=O)N[C@@H](Cc1ccc(O)cc1)C(=O)N1CCC[C@H]1C(=O)N[C@@H](CCCNC(=N)N)C(=O)N[C@H](C(=O)N[C@@H](CC(=O)O)C(=O)N[C@H](C(=O)NCC(=O)N[C@@H](CO)C(=O)NCC(=O)N[C@@H](CO)C(=O)N1CCC[C@H]1C(N)=O)C(C)C)[C@@H](C)O` [M7] ({C22 diacid-γGlu}-ASQLSTAVLGRLSDELHRLQDYPRTDVGSGSP-NH2), the negative logarithm of the EC50 (pEC50) in series [1] was 9.71. In series [2], the “Concentration change on 7 d” value is “No change (concentration change of less than 1% (denoted as “no change”))”, the “Concentration change on 26 d” value is reported as “No change (concentration change of less than 1% (denoted as “no change”))”, the “Purity change on 7 d” value is recorded as “No change” and the “Purity change on 26 d” value is “nearly no noticeable change in purity”.

In the case of `CC(C)C[C@H](NC(=O)[C@H](CCCNC(=N)N)NC(=O)CNC(=O)[C@H](CC(C)C)NC(=O)[C@@H](NC(=O)[C@H](C)NC(=O)[C@@H](NC(=O)[C@H](CO)NC(=O)[C@H](CC(C)C)NC(=O)[C@H](CCC(N)=O)NC(=O)[C@H](CO)NC(=O)[C@H](C)NC(=O)CC[C@H](NC(=O)CCCCCCCCCCCCCCCCC(=O)O)C(=O)O)[C@@H](C)O)C(C)C)C(=O)N[C@@H](CO)C(=O)N[C@@H](CC(=O)O)C(=O)N[C@@H](CCC(=O)O)C(=O)N[C@@H](CC(C)C)C(=O)N[C@@H](Cc1c[nH]cn1)C(=O)N[C@@H](CCCNC(=N)N)C(=O)N[C@@H](CC(C)C)C(=O)N[C@@H](CCC(N)=O)C(=O)N[C@@H](CC(=O)O)C(=O)N[C@@H](Cc1ccc(O)cc1)C(=O)N1CCC[C@H]1C(=O)N[C@@H](CCCNC(=N)N)C(=O)N[C@H](C(=O)N[C@@H](CC(=O)O)C(=O)N[C@H](C(=O)NCC(=O)N[C@@H](CO)C(=O)NCC(=O)N[C@@H](CO)C(=O)N1CCC[C@H]1C(N)=O)C(C)C)[C@@H](C)O` [M8] ({C18 diacid-γGlu}-ASQLSTAVLGRLSDELHRLQDYPRTDVGSGSP-NH2), the negative logarithm of the EC50 (pEC50) in series [1] was 9.78. Besides, in series [2], the “Concentration change on 7 d” value was “No change (concentration change of less than 1% (denoted as “no change”))”, the “Concentration change on 26 d” value is listed as −6.190%, the “Purity change on 7 d” value was “No change” and the “Purity change on 26 d” value is −3.3%.

Turning to `CC(C)C[C@H](NC(=O)[C@H](CCCNC(=N)N)NC(=O)CNC(=O)[C@H](CC(C)C)NC(=O)[C@@H](NC(=O)[C@H](C)NC(=O)[C@@H](NC(=O)[C@H](CO)NC(=O)[C@H](CC(C)C)NC(=O)[C@H](CCC(N)=O)NC(=O)[C@H](CO)NC(=O)[C@H](C)NC(=O)CC[C@H](NC(=O)CCCCCCCCCCCCCCC(=O)O)C(=O)O)[C@@H](C)O)C(C)C)C(=O)N[C@@H](CO)C(=O)N[C@@H](CC(=O)O)C(=O)N[C@@H](CCC(=O)O)C(=O)N[C@@H](CC(C)C)C(=O)N[C@@H](Cc1c[nH]cn1)C(=O)N[C@@H](CCCNC(=N)N)C(=O)N[C@@H](CC(C)C)C(=O)N[C@@H](CCC(N)=O)C(=O)N[C@@H](CC(=O)O)C(=O)N[C@@H](Cc1ccc(O)cc1)C(=O)N1CCC[C@H]1C(=O)N[C@@H](CCCNC(=N)N)C(=O)N[C@H](C(=O)N[C@@H](CC(=O)O)C(=O)N[C@H](C(=O)NCC(=O)N[C@@H](CO)C(=O)NCC(=O)N[C@@H](CO)C(=O)N1CCC[C@H]1C(N)=O)C(C)C)[C@@H](C)O` [M9] ({C16 diacid-γGlu}-ASQLSTAVLGRLSDELHRLQDYPRTDVGSGSP-NH2), in series [1], the negative-log EC50 (pEC50) is 9.92. Further, in series [2], the “Concentration change on 7 d” value was −2.280%, the “Concentration change on 26 d” value was −7.796%, the “Purity change on 7 d” value was −1.67% and the “Purity change on 26 d” value was −4.82%.

Turning to `CC(C)C[C@H](NC(=O)[C@H](CCCNC(=N)N)NC(=O)CNC(=O)[C@H](CC(C)C)NC(=O)[C@@H](NC(=O)[C@H](C)NC(=O)[C@@H](NC(=O)[C@H](CO)NC(=O)[C@H](CC(C)C)NC(=O)[C@H](CCC(N)=O)NC(=O)[C@H](CO)NC(=O)[C@H](C)NC(=O)[C@H](CC(=O)O)NC(=O)CCCCCCCCCCCCCCCCC(=O)O)[C@@H](C)O)C(C)C)C(=O)N[C@@H](CO)C(=O)N[C@@H](CC(=O)O)C(=O)N[C@@H](CCC(=O)O)C(=O)N[C@@H](CC(C)C)C(=O)N[C@@H](Cc1c[nH]cn1)C(=O)N[C@@H](CCCNC(=N)N)C(=O)N[C@@H](CC(C)C)C(=O)N[C@@H](CCC(N)=O)C(=O)N[C@@H](CC(=O)O)C(=O)N[C@@H](Cc1ccc(O)cc1)C(=O)N1CCC[C@H]1C(=O)N[C@@H](CCCNC(=N)N)C(=O)N[C@H](C(=O)N[C@@H](CC(=O)O)C(=O)N[C@H](C(=O)NCC(=O)N[C@@H](CO)C(=O)NCC(=O)N[C@@H](CO)C(=O)N1CCC[C@H]1C(N)=O)C(C)C)[C@@H](C)O` [M13] ({C18 diacid}-DASQLSTAVLGRLSDELHRLQDYPRTDVGSGSP-NH2), in series [1], the negative-log EC50 (pEC50) was 10.07. Also, in series [2], the “Concentration change on 7 d” value is −1.895%, the “Concentration change on 26 d” value is −5.520%, the “Purity change on 7 d” value is reported as −1.15% and the “Purity change on 26 d” value was −3.76%.

As for `CC(C)C[C@H](NC(=O)[C@H](CCCNC(=N)N)NC(=O)CNC(=O)[C@H](CC(C)C)NC(=O)[C@@H](NC(=O)[C@H](C)NC(=O)[C@@H](NC(=O)[C@H](CO)NC(=O)[C@H](CC(C)C)NC(=O)[C@H](CCC(N)=O)NC(=O)[C@H](CO)NC(=O)[C@H](C)NC(=O)COCCOCCNC(=O)COCCOCCNC(=O)CC[C@H](NC(=O)CCCCCCCCCCCCCCCCC(=O)O)C(=O)O)[C@@H](C)O)C(C)C)C(=O)N[C@@H](CO)C(=O)N[C@@H](CC(=O)O)C(=O)N[C@@H](CCC(=O)O)C(=O)N[C@@H](CC(C)C)C(=O)N[C@@H](Cc1c[nH]cn1)C(=O)N[C@@H](CCCNC(=N)N)C(=O)N[C@@H](CC(C)C)C(=O)N[C@@H](CCC(N)=O)C(=O)N[C@@H](CC(=O)O)C(=O)N[C@@H](Cc1ccc(O)cc1)C(=O)N1CCC[C@H]1C(=O)N[C@@H](CCCNC(=N)N)C(=O)N[C@H](C(=O)N[C@@H](CC(=O)O)C(=O)N[C@H](C(=O)NCC(=O)N[C@@H](CO)C(=O)NCC(=O)N[C@@H](CO)C(=O)N1CCC[C@H]1C(N)=O)C(C)C)[C@@H](C)O` [M22] ({C18 diacid-γGlu-AEEA-AEEA}-ASQLSTAVLGRLSDELHRLQDYPRTDVGSGSP-NH2), the negative-log EC50 (pEC50) in series [3] is 10.82. Also, in series [2], the “Concentration change on 26 d” value is on record as −5.493%, the “Purity change on 7 d” value came out at 2.59% and the “Purity change on 26 d” value is on record as −2.19%.
